Measurements reported in ChEMBL document CHEMBL1201862, “PubChem BioAssay data set” (2004).
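In this assay, cells in 96-well plates receive the compound at five concentrations for 48 hours. Endpoints are linearly interpolated between the surrounding concentrations. Here, GI50 denotes the concentration required for 50% inhibition of growth.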 Activity calls are given as the source filed them. No stated cut-off is given here; in the data, active = GI50 up to about 1.1 µM and inactive = higher.

Assays:
Assay in all cases: growth of human tumour cells (NCI), 48 h
RXF 631 = test system: RXF 631
HOP-18 = test system: HOP-18
XF498 = test system: XF498
DMS-114 = test system: DMS-114
DMS-273 = test system: DMS-273
SNB-78 = test system: SNB-78
LXFL 529 = test system: LXFL 529
KM-20L2 = test system: KM-20L2
M19-MEL = test system: M19-MEL

SMILES	GI50 (RXF 631)	GI50 (HOP-18)	GI50 (XF498)	GI50 (DMS-114)	GI50 (DMS-273)	GI50 (SNB-78)	GI50 (LXFL 529)	GI50 (KM-20L2)	GI50 (M19-MEL)
Nc1ncnc2c1ncn2[C@]1(CO)C=C(CO)C(O)C1O (stereo partly specified)	> 100 µM (inactive)	> 100 µM (inactive)	> 100 µM (inactive)	> 100 µM (inactive)	> 100 µM (inactive)	> 100 µM (inactive)	> 100 µM (inactive)	> 100 µM (inactive)	
CC1(C)OC2CC3COC(=O)C3CC2O1 (stereo unspecified)	> 100 µM (inactive)	> 100 µM (inactive)		> 100 µM (inactive)	> 100 µM (inactive)	> 100 µM (inactive)	> 100 µM (inactive)	> 100 µM (inactive)	> 100 µM (inactive)
COc1cc(C(C)O)c[n+](CCC2CNc3ccccc32)c1 (stereo unspecified)			> 100 µM (inactive)	91.4 µM (inactive)	> 100 µM (inactive)		> 100 µM (inactive)	43 µM (inactive)	> 100 µM (inactive)
CC[C@@]1(O)C(=O)OCc2c1cc1n(c2=O)Cc2cc3c(N)cccc3nc2-1 [9-AMINOCAMPTOTHECIN]	0.0375 µM (active)	0.0277 µM (active)	0.143 µM (active)	< 0.01 µM (active)	< 0.01 µM (active)	0.574 µM (active)	0.244 µM (active)	0.0643 µM (active)	0.0198 µM (active)
C=C(Br)C(C)(Cl)CCC(Br)C(C)(C)Br (stereo unspecified)		> 100 µM (inactive)		25.4 µM (inactive)	39.4 µM (inactive)	> 100 µM (inactive)	83 µM (inactive)		34 µM (inactive)
CCOC(=N)/C(=C1\OC(=N)C(c2ccc(Cl)cc2)=C1O)c1ccc(Cl)cc1	25.2 µM (inactive)	19 µM (inactive)	11.4 µM (inactive)	17.3 µM (inactive)	14.7 µM (inactive)	25.6 µM (inactive)	14.7 µM (inactive)	18.5 µM (inactive)	16.9 µM (inactive)
Cc1ccc(S(=O)(=O)OCC23CCC(C2)C2CC23)cc1 (stereo unspecified)		> 100 µM (inactive)		> 100 µM (inactive)	> 100 µM (inactive)		> 100 µM (inactive)	> 100 µM (inactive)	> 100 µM (inactive)
CC(=O)O/N=C/c1ncccc1CO	> 100 µM (inactive)	> 100 µM (inactive)	> 100 µM (inactive)	> 100 µM (inactive)	> 100 µM (inactive)		> 100 µM (inactive)	> 100 µM (inactive)	> 100 µM (inactive)
Cc1ccc(NC(=O)CCc2nc(N)nc(N)c2-c2ccccc2)cc1C	> 100 µM (inactive)	> 100 µM (inactive)	> 100 µM (inactive)	> 100 µM (inactive)	> 100 µM (inactive)	> 100 µM (inactive)	> 100 µM (inactive)	> 100 µM (inactive)	> 100 µM (inactive)
COc1ccc2c(-c3cc4ccccc4o3)cc(=O)oc2c1	36.9 µM (inactive)	48.6 µM (inactive)	21.3 µM (inactive)		61.8 µM (inactive)	35.2 µM (inactive)	> 76.2 µM (inactive)	> 100 µM (inactive)	> 100 µM (inactive)
COc1cc2nc(NCCCCCNC(=O)c3ccco3)nc(N)c2cc1OC	26.1 µM (inactive)	> 100 µM (inactive)		19.9 µM (inactive)	49.9 µM (inactive)	28.2 µM (inactive)		32.4 µM (inactive)	23 µM (inactive)
CC(C)c1c2[nH]c3ccccc3c2c(C(C)C)c2[nH]c3ccccc3c12	> 100 µM (inactive)	> 100 µM (inactive)	> 100 µM (inactive)	> 100 µM (inactive)	81.5 µM (inactive)	> 100 µM (inactive)	> 100 µM (inactive)	17.6 µM (inactive)	> 100 µM (inactive)
CN(C)C(=O)c1ccc([N+](=O)[O-])cc1				> 100 µM (inactive)	> 100 µM (inactive)	> 100 µM (inactive)	> 100 µM (inactive)	> 100 µM (inactive)	> 100 µM (inactive)
Nc1nc2c3c(ncn3CC(O)CO2)n1 (stereo unspecified)	> 100 µM (inactive)	> 100 µM (inactive)		> 100 µM (inactive)	> 100 µM (inactive)	> 100 µM (inactive)	> 100 µM (inactive)	> 100 µM (inactive)	6.31 µM (inactive)
N#C/C(=C\c1ccc(O)c(O)c1)c1c(C#N)c(N)nn1-c1ccccc1		1.04 µM (active)			6.92 µM (inactive)	14.6 µM (inactive)	8.65 µM (inactive)	38.1 µM (inactive)	7.4 µM (inactive)
CCOC(=O)[C@H]1Nc2ccc(Cl)cc2[C@H]2c3ccccc3O[C@H]21	> 100 µM (inactive)	> 100 µM (inactive)	> 100 µM (inactive)	> 100 µM (inactive)	30.1 µM (inactive)	> 100 µM (inactive)	32.1 µM (inactive)	> 100 µM (inactive)	> 100 µM (inactive)
O=C(N/C(=C\c1ccc(/C=C(\NC(=O)c2ccccc2)c2nc3c(O)nc(S)nc3[nH]2)cc1)c1nc2c(O)nc(S)nc2[nH]1)c1ccccc1	62.4 µM (inactive)	> 100 µM (inactive)	> 100 µM (inactive)	34.3 µM (inactive)	> 100 µM (inactive)	> 100 µM (inactive)	35.9 µM (inactive)	> 100 µM (inactive)	
O=C(C[n+]1ccccc1)N/N=C(/CCC(=O)N(Cc1ccccc1)Cc1ccccc1)CC(=O)c1ccccc1	> 100 µM (inactive)	> 100 µM (inactive)		> 100 µM (inactive)	> 100 µM (inactive)	> 100 µM (inactive)	> 100 µM (inactive)	> 100 µM (inactive)	> 100 µM (inactive)
CC12O[C@H](c3ccccc3)[C@H](c3ccccc3)N1C(=O)C1(C(=O)OCc3ccccc3)CC12 (stereo partly specified)	> 100 µM (inactive)		78.9 µM (inactive)	39.6 µM (inactive)	80 µM (inactive)		26.6 µM (inactive)	25.1 µM (inactive)	> 100 µM (inactive)
O=C(Nc1c(O)[nH]c(=S)[nH]c1=O)c1ccco1		> 100 µM (inactive)		> 100 µM (inactive)		> 100 µM (inactive)	> 100 µM (inactive)	> 100 µM (inactive)	> 100 µM (inactive)
O/N=C1/CCC/C1=C\c1ccccc1		> 100 µM (inactive)	29.9 µM (inactive)		> 100 µM (inactive)	> 100 µM (inactive)	> 100 µM (inactive)	> 100 µM (inactive)	> 10 µM (inactive)
O=[N+]([O-])c1ccccc1/C=N/C12CC3CC(CC(C3)C1)C2	> 100 µM (inactive)	> 100 µM (inactive)	> 100 µM (inactive)		34.6 µM (inactive)	47.1 µM (inactive)	45.5 µM (inactive)	51.1 µM (inactive)	> 100 µM (inactive)
